Data: patent publication US20250269072A1, “PROCESSES FOR PREPARING RADIOLABELLED CONJUGATES” (CENTENARY INSTITUTE OF CANCER MEDICINE AND CELL BIOLOGY, priority 2021, published 2025)
Several values for one entry are separate records, joined by “and”; a condition that tells them apart may be missing. Identical values can stand only once.

Test: Human studies: radiation dosimetry of subjects 1-4 (Olinda/EXM)
Format: in vivo
Experimental: For subjects 1-4, radiation dosimetry was calculated using Olinda/EXM based on the organ biodistribution discussed above.
Tables 7-10 show the estimate for radiation dosimetry for subjects 1˜4 of 200 MBq of ^68Ga NODAGA GSAO for individual organs and for the whole body in mSv/MBq (EDE cont.=effective dose equivalent contribution, ED Cont.=effective dose contribution). The estimated whole-body dose from the one (1) low dose CT and two (2) ultra-low dose CTs was 9.2 mSv.

[1] = Red Marrow, subjects 1-4 = the 7th table-the 10th table
[2] = Skin, subjects 1-4 = the 7th table-the 10th table
[3] = Small Intestine, subjects 1-4 = the 7th table-the 10th table
[4] = Spleen, subjects 1-4 = the 7th table-the 10th table
[5] = Stomach Wall, subjects 1-4 = the 7th table-the 10th table
[6] = Testes, subject 1 = the 7th table, subject 3 = the 9th table
[7] = Thymus, subjects 1-4 = the 7th table-the 10th table
[8] = Thyroid, subjects 1-4 = the 7th table-the 10th table
[9] = Total Body, subjects 1-4 = the 7th table-the 10th table
[10] = ULI Wall, subjects 1-4 = the 7th table-the 10th table
[11] = Uterus, subjects 1-4 = the 7th table-the 10th table

Question: For `O=C(O)CNC(=O)[C@H](CSCC(=O)Nc1ccc([As](O)O)cc1)NC(=O)CC[C@H](NC(=O)CCC1C(=O)[O][68Ga]2[O]C(=O)CN3CCN(CCN1CC3)CC(=O)[O]2)C(=O)O` (some centres unmarked) [^68Ga-NODAGA-GSAO], which Total dose (Pancreas, subjects 1-4 = the 7th table-the 10th table) is on record?
Answer: 1.69E−02 mSv/MBq and 2.21E−02 mSv/MBq and 1.54E−02 mSv/MBq

Question: And the Alpha dose [1]?
Answer: 0.00E+00 mSv/MBq

Question: What about the Beta dose [1] of the same compound?
Answer: 5.39E−03 mSv/MBq and 6.61E−03 mSv/MBq and 4.29E−03 mSv/MBq and 5.25E−03 mSv/MBq

Question: And the “ED Cont.” value [1]?
Answer: 1.09E−03 mSv/MBq and 1.30E−03 mSv/MBq and 8.70E−04 mSv/MBq and 1.13E−03 mSv/MBq

Question: And the “EDE Cont.” value [1]?
Answer: 1.09E−03 mSv/MBq and 1.30E−03 mSv/MBq and 8.70E−04 mSv/MBq and 1.13E−03 mSv/MBq

Question: And the Photon dose [1]?
Answer: 3.70E−03 mSv/MBq and 4.24E−03 mSv/MBq and 2.96E−03 mSv/MBq and 4.13E−03 mSv/MBq

Question: What about the Total dose [1] of the same compound?
Answer: 9.08E−03 mSv/MBq and 1.08E−02 mSv/MBq and 7.25E−03 mSv/MBq and 9.38E−03 mSv/MBq

Question: What about the Alpha dose [2] of the same compound?
Answer: 0.00E+00 mSv/MBq

Question: And the “ED Cont.” value [2]?
Answer: 5.17E−05 mSv/MBq and 7.01E−05 mSv/MBq and 3.66E−05 mSv/MBq and 5.79E−05 mSv/MBq

Question: What about the “EDE Cont.” value [2] of the same compound?
Answer: 0.00E+00 mSv/MBq

Question: And the Photon dose [2]?
Answer: 2.03E−03 mSv/MBq and 2.32E−03 mSv/MBq and 1.63E−03 mSv/MBq and 2.26E−03 mSv/MBq

Question: What about the Total dose [2] of the same compound?
Answer: 5.17E−03 mSv/MBq and 7.01E−03 mSv/MBq and 3.66E−03 mSv/MBq and 5.79E−03 mSv/MBq

Question: And the Alpha dose [3]?
Answer: 0.00E+00 mSv/MBq

Question: What about the “ED Cont.” value [3] of the same compound?
Answer: 7.19E−05 mSv/MBq and 9.14E−05 mSv/MBq and 6.51E−05 mSv/MBq and 4.60E−05 mSv/MBq

Question: And the “EDE Cont.” value [3]?
Answer: 0.00E+00 mSv/MBq

Question: And the Photon dose [3]?
Answer: 5.21E−03 mSv/MBq and 5.57E−03 mSv/MBq and 4.29E−03 mSv/MBq and 5.67E−03 mSv/MBq

Question: And the Total dose [3]?
Answer: 1.44E−02 mSv/MBq and 1.83E−02 mSv/MBq and 1.30E−02 mSv/MBq and 9.20E−03 mSv/MBq

Question: What about the Alpha dose [4] of the same compound?
Answer: 0.00E+00 mSv/MBq

Question: What about the Beta dose [4] of the same compound?
Answer: 1.27E−02 mSv/MBq and 1.48E−02 mSv/MBq and 1.09E−02 mSv/MBq and 1.18E−02 mSv/MBq

Question: What about the “ED Cont.” value [4] of the same compound?
Answer: 8.65E−05 mSv/MBq and 1.01E−04 mSv/MBq and 7.35E−05 mSv/MBq and 8.27E−05 mSv/MBq

Question: And the Photon dose [4]?
Answer: 4.57E−03 mSv/MBq and 5.34E−03 mSv/MBq and 3.83E−03 mSv/MBq and 4.70E−03 mSv/MBq

Question: And the Total dose [4]?
Answer: 1.73E−02 mSv/MBq and 2.02E−02 mSv/MBq and 1.47E−02 mSv/MBq and 1.65E−02 mSv/MBq

Question: And the Alpha dose [5]?
Answer: 0.00E+00 mSv/MBq

Question: What about the “EDE Cont.” value [5] of the same compound?
Answer: 0.00E+00 mSv/MBq

Question: What about the Photon dose [5] of the same compound?
Answer: 3.93E−03 mSv/MBq and 4.97E−03 mSv/MBq and 3.12E−03 mSv/MBq and 4.01E−03 mSv/MBq

Question: What about the Alpha dose [6] of the same compound?
Answer: 0.00E+00 mSv/MBq

Question: What about the Beta dose [6] of the same compound?
Answer: 1.37E−02 mSv/MBq and 1.22E−02 mSv/MBq

Question: And the “ED Cont.” value [6]?
Answer: 3.65E−03 mSv/MBq and 3.27E−03 mSv/MBq

Question: What about the “EDE Cont.” value [6] of the same compound?
Answer: 4.56E−03 mSv/MBq and 4.09E−03 mSv/MBq

Question: What about the Photon dose [6] of the same compound?
Answer: 4.58E−03 mSv/MBq and 4.18E−03 mSv/MBq

Question: What about the Total dose [6] of the same compound?
Answer: 1.83E−02 mSv/MBq and 1.64E−02 mSv/MBq

Question: What about the Alpha dose [7] of the same compound?
Answer: 0.00E+00 mSv/MBq

Question: And the “ED Cont.” value [7]?
Answer: 3.06E−05 mSv/MBq and 4.18E−05 mSv/MBq and 2.16E−05 mSv/MBq and 3.38E−05 mSv/MBq

Question: And the “EDE Cont.” value [7]?
Answer: 0.00E+00 mSv/MBq

Question: And the Photon dose [7]?
Answer: 2.96E−03 mSv/MBq and 3.66E−03 mSv/MBq and 2.30E−03 mSv/MBq and 3.23E−03 mSv/MBq

Question: And the Total dose [7]?
Answer: 6.11E−03 mSv/MBq and 8.36E−03 mSv/MBq and 4.32E−03 mSv/MBq and 6.76E−03 mSv/MBq

Question: What about the Alpha dose [8] of the same compound?
Answer: 0.00E+00 mSv/MBq

Question: What about the Beta dose [8] of the same compound?
Answer: 1.12E−02 mSv/MBq and 1.19E−02 mSv/MBq and 8.46E−03 mSv/MBq and 1.34E−02 mSv/MBq

Question: What about the “ED Cont.” value [8] of the same compound?
Answer: 7.05E−04 mSv/MBq and 7.59E−04 mSv/MBq and 5.42E−04 mSv/MBq and 8.18E−04 mSv/MBq

Question: And the “EDE Cont.” value [8]?
Answer: 4.23E−04 mSv/MBq and 4.55E−04 mSv/MBq and 3.25E−04 mSv/MBq and 4.91E−04 mSv/MBq

Question: And the Photon dose [8]?
Answer: 2.86E−03 mSv/MBq and 3.24E−03 mSv/MBq and 2.38E−03 mSv/MBq and 3.00E−03 mSv/MBq

Question: And the Total dose [8]?
Answer: 1.41E−02 mSv/MBq and 1.52E−02 mSv/MBq and 1.08E−02 mSv/MBq and 1.64E−02 mSv/MBq

Question: And the Alpha dose [9]?
Answer: 0.00E+00 mSv/MBq

Question: What about the Beta dose [9] of the same compound?
Answer: 6.33E−03 mSv/MBq and 7.76E−03 mSv/MBq and 4.94E−03 mSv/MBq and 6.96E−03 mSv/MBq

Question: What about the “ED Cont.” value [9] of the same compound?
Answer: 0.00E+00 mSv/MBq

Question: And the “EDE Cont.” value [9]?
Answer: 0.00E+00 mSv/MBq

Question: And the Photon dose [9]?
Answer: 3.44E−03 mSv/MBq and 3.84E−03 mSv/MBq and 2.77E−03 mSv/MBq and 3.92E−03 mSv/MBq

Question: And the Total dose [9]?
Answer: 9.78E−03 mSv/MBq and 1.16E−02 mSv/MBq and 7.71E−03 mSv/MBq and 1.09E−02 mSv/MBq

Question: And the Alpha dose [10]?
Answer: 0.00E+00 mSv/MBq

Question: What about the “EDE Cont.” value [10] of the same compound?
Answer: 0.00E+00 mSv/MBq

Question: What about the Photon dose [10] of the same compound?
Answer: 5.20E−03 mSv/MBq and 6.02E−03 mSv/MBq and 4.00E−03 mSv/MBq and 5.50E−03 mSv/MBq

Question: What about the Alpha dose (Urinary Bladder Wall, subjects 1-4 = the 7th table-the 10th table) of the same compound?
Answer: 0.00E+00 mSv/MBq

Question: And the Alpha dose [11]?
Answer: 0.00E+00 mSv/MBq

Question: And the Photon dose [11]?
Answer: 1.06E−02 mSv/MBq and 8.98E−03 mSv/MBq and 8.36E−03 mSv/MBq and 1.51E−02 mSv/MBq

Question: And the “estimated effective whole-body dose” value (administered activity of 200 MBq)?
Answer: 4.3-6.8 mSv

Question: What about the “estimated effective whole-body dose for the protocol” value (first in human protocol incl. CTs, subjects 1-4) of the same compound?
Answer: 13.5-15.9 mSv

Question: And the effective whole-body dose (range over subjects 1-4)?
Answer: 2.16×10^−2 to 3.38×10^−2 mSv/MBq

Question: What about the “overall estimated radiation dose” value (subject 1) of the same compound?
Answer: 14.5 mSv

Question: What about the “overall estimated radiation dose” value (subject 2) of the same compound?
Answer: 13.9 mSv

Question: And the “overall estimated radiation dose” value (subject 3)?
Answer: 13.5 mSv

Question: What about the “overall estimated radiation dose” value (subject 4) of the same compound?
Answer: 15.9 mSv

Question: And the “Effective Dose” value (whole body, subjects 1-4 = the 7th table-the 10th table)?
Answer: 2.63E−02 mSv/MBq and 2.35E−02 mSv/MBq and 2.16E−02 mSv/MBq and 3.38E−02 mSv/MBq
